The values that follow come from ChEMBL document CHEMBL5149982, “Development of Potent NEDD8-Activating Enzyme Inhibitors Bearing a Pyrimidotriazole Scaffold” (J Med Chem, 2021).

Assay [1] concerns the target T1, NEDD8 activating enzyme (Homo sapiens, UniProt Q8TBC4).
T1 sequence (Q8TBC4 whole entry): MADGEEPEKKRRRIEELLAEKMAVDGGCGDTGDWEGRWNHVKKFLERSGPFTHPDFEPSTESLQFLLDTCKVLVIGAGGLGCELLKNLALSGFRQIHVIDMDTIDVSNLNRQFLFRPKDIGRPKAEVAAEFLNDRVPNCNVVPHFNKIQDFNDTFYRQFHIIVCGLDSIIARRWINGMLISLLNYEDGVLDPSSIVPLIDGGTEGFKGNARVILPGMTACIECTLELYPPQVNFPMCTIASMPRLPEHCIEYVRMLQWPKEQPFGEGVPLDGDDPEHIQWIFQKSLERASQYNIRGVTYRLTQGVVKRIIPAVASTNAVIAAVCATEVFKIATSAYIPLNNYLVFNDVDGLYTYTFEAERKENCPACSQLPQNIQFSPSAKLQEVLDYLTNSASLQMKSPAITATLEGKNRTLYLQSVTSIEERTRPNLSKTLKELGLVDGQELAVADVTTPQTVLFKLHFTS
T1 sequence (Q13564 whole entry): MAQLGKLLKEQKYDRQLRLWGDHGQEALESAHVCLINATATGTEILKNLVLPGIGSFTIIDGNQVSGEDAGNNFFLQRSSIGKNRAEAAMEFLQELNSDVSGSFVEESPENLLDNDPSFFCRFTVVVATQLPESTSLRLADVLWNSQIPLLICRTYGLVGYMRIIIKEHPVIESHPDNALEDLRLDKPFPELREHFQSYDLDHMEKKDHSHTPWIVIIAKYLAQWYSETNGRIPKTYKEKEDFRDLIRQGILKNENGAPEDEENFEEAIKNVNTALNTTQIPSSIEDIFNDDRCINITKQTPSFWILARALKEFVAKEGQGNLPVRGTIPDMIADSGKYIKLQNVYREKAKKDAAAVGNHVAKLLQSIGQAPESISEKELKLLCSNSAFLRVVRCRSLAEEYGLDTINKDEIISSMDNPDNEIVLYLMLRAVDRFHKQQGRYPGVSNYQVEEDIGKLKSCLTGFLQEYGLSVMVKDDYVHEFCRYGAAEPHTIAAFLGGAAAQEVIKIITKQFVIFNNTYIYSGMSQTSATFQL
The experiment in a line: Inhibition of NAE (unknown origin) mediated neddylation assessed as decrease in NEDD8-Ubcl2 adduct formation incubated for 2 hrs in presence of L-glutathione and ATP by HTRF assay. In kind it is protein-complex assay.

The test system of assay [2] is HCT-116. The experiment in a line: Antiproliferative activity against human HCT-116 cells assessed as cell growth inhibition by sulforhodamine B assay. In kind it is functional, cell-based. For orientation: The SRB assay estimates cell density from bound dye.
The target of assay [3] is Voltage-gated inwardly rectifying potassium channel KCNH2 (Homo sapiens, UniProt Q12809). The experiment in a line: Inhibition of hERG channel. Type of assay: toxicity. For orientation: Block of hERG is tested as a sign of cardiac risk.
Assay [4] deals with T1, NEDD8 activating enzyme. The experiment in a line: Inhibition of NAE (unknown origin). Type of assay: protein-complex assay.
Assay [5] has as its target T1, NEDD8 activating enzyme. The experiment in a line: Inhibition of NAE in human HCT-116 cells incubated for 1 hr by Western blot analysis. In kind it is cell-based. A general note: A western blot detects proteins with antibodies after separation by electrophoresis.

Voltage-gated inwardly rectifying potassium channel KCNH2, sequence (Q12809 whole entry): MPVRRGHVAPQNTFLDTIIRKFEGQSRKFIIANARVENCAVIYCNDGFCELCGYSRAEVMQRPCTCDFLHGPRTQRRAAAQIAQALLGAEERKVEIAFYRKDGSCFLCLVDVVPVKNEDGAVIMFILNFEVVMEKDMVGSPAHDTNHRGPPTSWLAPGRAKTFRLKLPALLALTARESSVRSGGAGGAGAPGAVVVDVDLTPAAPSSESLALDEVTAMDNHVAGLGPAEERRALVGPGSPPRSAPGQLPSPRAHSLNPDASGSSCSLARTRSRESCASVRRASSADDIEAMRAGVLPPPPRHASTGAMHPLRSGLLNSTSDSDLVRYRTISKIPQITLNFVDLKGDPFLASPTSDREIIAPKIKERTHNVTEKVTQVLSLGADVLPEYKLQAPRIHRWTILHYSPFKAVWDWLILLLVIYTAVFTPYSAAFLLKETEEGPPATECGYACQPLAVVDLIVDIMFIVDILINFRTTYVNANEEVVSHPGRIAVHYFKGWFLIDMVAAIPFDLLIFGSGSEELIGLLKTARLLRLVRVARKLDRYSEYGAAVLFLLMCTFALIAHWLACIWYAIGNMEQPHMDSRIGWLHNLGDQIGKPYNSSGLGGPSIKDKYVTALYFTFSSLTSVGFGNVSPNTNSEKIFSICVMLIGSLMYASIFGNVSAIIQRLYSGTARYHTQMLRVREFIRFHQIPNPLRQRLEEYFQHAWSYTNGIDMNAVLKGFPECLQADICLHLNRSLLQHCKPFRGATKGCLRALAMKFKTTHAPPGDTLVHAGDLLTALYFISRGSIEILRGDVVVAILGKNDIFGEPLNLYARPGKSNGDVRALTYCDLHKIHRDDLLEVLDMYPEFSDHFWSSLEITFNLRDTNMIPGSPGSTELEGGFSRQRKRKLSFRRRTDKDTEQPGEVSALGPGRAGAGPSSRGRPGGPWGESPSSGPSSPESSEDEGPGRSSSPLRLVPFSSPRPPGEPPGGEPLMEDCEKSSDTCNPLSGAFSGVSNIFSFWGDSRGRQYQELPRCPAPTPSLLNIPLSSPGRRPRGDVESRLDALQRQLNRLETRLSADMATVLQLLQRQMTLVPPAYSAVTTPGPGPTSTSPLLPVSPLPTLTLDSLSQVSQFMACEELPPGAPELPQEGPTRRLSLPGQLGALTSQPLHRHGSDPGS

As to `NS(=O)(=O)OC[C@@H]1C[C@@H](n2nnc3c(NCc4ccco4)ncnc32)C[C@@H]1O`, the IC50 (in general, the concentration that gives 50% inhibition) in assay [1] worked out at 30.6 nM. Turning to `CCOC(=O)N1CCC2(CC1)C[C@H](Nc1ncnc3c1nnn3[C@@H]1C[C@@H](COS(N)(=O)=O)[C@@H](O)C1)c1ccccc12`, the IC50 came out at 2.23 nM in assay [1] and 102 nM in assay [2].

For the molecule `NS(=O)(=O)OC[C@@H]1C[C@@H](n2nnc3c(N[C@H]4CCc5ccccc54)ncnc32)C[C@@H]1O`, the IC50 in assay [1] is 0.21 nM; in assay [2], 43.2 nM; in assay [3], more than 40000 nM.

As for `NS(=O)(=O)OC[C@@H]1C[C@@H](n2nnc3c(N[C@H]4CC5(CCNCC5)c5ccccc54)ncnc32)C[C@@H]1O`, the IC50 in assay [1] turned out to be 66.9 nM. `NS(=O)(=O)OC[C@@H]1C[C@@H](n2nnc3c(Nc4n[nH]c5ccccc45)ncnc32)C[C@@H]1O`: in assay [1], the IC50 is more than 10000 nM. Still for that read-out and setting: with `CN(C)[C@H]1Cc2ccccc2[C@H]1Nc1ncnc2c1nnn2[C@@H]1C[C@@H](COS(N)(=O)=O)[C@@H](O)C1` the figure was 207 nM. `NS(=O)(=O)OC[C@@H]1C[C@@H](n2nnc3c(N[C@H]4CC5(CCN(C(=O)O[C@@H]6CCOC6)CC5)c5ccccc54)ncnc32)C[C@@H]1O`: the IC50 in assay [1] was 0.57 nM; in assay [2], 110 nM. Take `NS(=O)(=O)OC[C@@H]1C[C@@H](n2nnc3c(NCCc4cccs4)ncnc32)C[C@@H]1O`: the IC50 in assay [1] is 107 nM. As to `NS(=O)(=O)OC[C@@H]1C[C@@H](n2nnc3c(NCc4cccs4)ncnc32)C[C@@H]1O`, the IC50 was 15.9 nM in assay [1] and more than 10000 nM in assay [2]. For `NS(=O)(=O)OC[C@@H]1C[C@@H](n2nnc3c(N[C@H]4CC5(CCN(C(=O)OCCN6CCOCC6)CC5)c5ccccc54)ncnc32)C[C@@H]1O` the same measures were 9.98 nM and 338 nM.

Turning to `COC(=O)[C@H]1C=C[C@@H](Nc2ncnc3c2nnn3[C@@H]2C[C@@H](COS(N)(=O)=O)[C@@H](O)C2)C1`, the IC50 in assay [1] was 80.9 nM.

As for `NS(=O)(=O)OC[C@@H]1C[C@@H](n2nnc3c(N[C@H]4CC5(CCN(C(=O)OCCF)CC5)c5ccccc54)ncnc32)C[C@@H]1O`, the figures for the half-inhibitory concentration (IC50) in assay [1] and in assay [2] were 6 nM and 104 nM, respectively. For `CC(C)OC(=O)N1CCC2(CC1)C[C@H](Nc1ncnc3c1nnn3[C@@H]1C[C@@H](COS(N)(=O)=O)[C@@H](O)C1)c1ccccc12` the same measures were 4.2 nM and 121 nM. As to `COCC(=O)N[C@H]1Cc2ccccc2[C@H]1Nc1ncnc2c1nnn2[C@@H]1C[C@@H](COS(N)(=O)=O)[C@@H](O)C1`, in assay [1], the IC50 was 170 nM. As to `COCC(=O)N1CCC2(CC1)C[C@H](Nc1ncnc3c1nnn3[C@@H]1C[C@@H](COS(N)(=O)=O)[C@@H](O)C1)c1ccccc12`, the half-maximal inhibitory concentration (IC50) amounted to 5.77 nM in assay [1] and 1420 nM in assay [2]. As to `CC(C)(C)OC(=O)N1CCC2(CC1)C[C@H](Nc1ncnc3c1nnn3[C@@H]1C[C@@H](COS(N)(=O)=O)[C@@H](O)C1)c1ccccc12`, the IC50 in assay [1] is 9.76 nM; in assay [2], 94.4 nM; in assay [3] it was more than 40000 nM. As for `NS(=O)(=O)OC[C@@H]1C[C@@H](n2ncc3c(N[C@H]4CCc5ccccc54)ccnc32)C[C@@H]1O`, the IC50 in assay [1] is more than 10000 nM. `NS(=O)(=O)OC[C@@H]1C[C@@H](n2nnc3c(NCc4ccccc4F)ncnc32)C[C@@H]1O`: the IC50 in assay [1] was 6.11 nM; in assay [2] it was 3860 nM. On to `CCCCCCNc1ncnc2c1nnn2[C@@H]1C[C@@H](COS(N)(=O)=O)[C@@H](O)C1`, for which, in assay [1], the 50% inhibitory concentration (IC50) is 21.1 nM.

In turn, `NS(=O)(=O)OC[C@H]1O[C@@H](n2cnc3c(N[C@H]4CCc5ccccc54)ncnc32)[C@H](O)[C@@H]1O` returned a half-inhibitory concentration (IC50) in assay [4] of 10 nM. Regarding `NS(=O)(=O)OC[C@@H]1C[C@@H](n2nnc3c(NC4CCCC4)ncnc32)C[C@@H]1O`, the IC50 in assay [1] is more than 10000 nM.

For `CN1CCC2(CC1)C[C@H](Nc1ncnc3c1nnn3[C@@H]1C[C@@H](COS(N)(=O)=O)[C@@H](O)C1)c1ccccc12`, the half-inhibitory concentration (IC50) in assay [1] is 187 nM. In the case of `NS(=O)(=O)OC[C@@H]1C[C@@H](n2nnc3c(NCCCc4ccccc4)ncnc32)C[C@@H]1O`, the 50% inhibitory concentration (IC50) in assay [1] was 149 nM. Same read-out and setting: with `NS(=O)(=O)OC[C@@H]1C[C@@H](n2nnc3c(Nc4cnc5ccccn45)ncnc32)C[C@@H]1O` the figure was more than 10000 nM. As for `CC(C)(C)NC(=O)N1CCC2(CC1)C[C@H](Nc1ncnc3c1nnn3[C@@H]1C[C@@H](COS(N)(=O)=O)[C@@H](O)C1)c1ccccc12`, the half-inhibitory concentration (IC50) turned out to be 0.02 nM in assay [1] and 151 nM in assay [2]. As for `NS(=O)(=O)OC[C@@H]1C[C@@H](Nc2ncnc(N[C@H]3CCc4ccccc43)c2F)C[C@@H]1O`, in assay [1], the IC50 turned out to be 219 nM. On the same count and under the same terms, next, `NS(=O)(=O)OC[C@@H]1C[C@@H](n2nnc3c(NCCc4ccccc4)ncnc32)C[C@@H]1O`: 81.8 nM. The same measure, in the same setting: with `NS(=O)(=O)OC[C@@H]1C[C@@H](n2nnc3c(N[C@H]4CC5(CCN(C(=O)OC(C(F)(F)F)C(F)(F)F)CC5)c5ccccc54)ncnc32)C[C@@H]1O` the figure was 21.1 nM.

Turning to `NS(=O)(=O)OC[C@@H]1C[C@@H](n2nnc3c(Nn4ccc5ccccc54)ncnc32)C[C@@H]1O`, the 50% inhibitory concentration (IC50) in assay [1] was more than 10000 nM.

Turning to `COCC(=O)N[C@@H]1Cc2ccccc2[C@H]1Nc1ncnc2c1nnn2[C@@H]1C[C@@H](COS(N)(=O)=O)[C@@H](O)C1`, the IC50 in assay [1] was more than 10000 nM. Same read-out and setting: next, `NS(=O)(=O)OC[C@@H]1C[C@@H](n2nnc3c(N[C@H]4CC5(CCN(C(=O)OC(CO)CO)CC5)c5ccccc54)ncnc32)C[C@@H]1O`: 120 nM.

With `COCCO[C@H]1Cc2ccccc2[C@H]1Nc1ncnc2c1nnn2[C@@H]1C[C@@H](COS(N)(=O)=O)[C@@H](O)C1`, the IC50 was 3.56 nM in assay [1] and 70.2 nM in assay [2].

As for `NS(=O)(=O)OC[C@@H]1C[C@@H](n2nnc3c(N[C@@H]4c5ccccc5C[C@@H]4O)ncnc32)C[C@@H]1O`, the figures for the concentration for half-maximal inhibition (IC50) in assay [1], in assay [2] and in assay [3] were 2.28 nM, 38.8 nM and more than 40000 nM, respectively. Consider `CCOc1cccc(F)c1C#Cc1cn([C@@H]2O[C@H](COS(N)(=O)=O)[C@@H](O)[C@H]2O)c2ncnc(N)c12`, for which the half-inhibitory concentration (IC50) in assay [4] came to 1 nM; in assay [5], 8 nM.
